Laboratory results taken from patent publication US20250042895A1, “INHIBITORS OF ULK1 AND METHODS OF USE” (H. LEE MOFFITT CANCER CENTER AND RESEARCH INSTITUTE, INC., priority 2021, published 2025).
pIC50: −log10 of the molar value.

Tests used:
GST-ULK1 = target: T1, GST-ULK1 (Homo sapiens, UniProt O75385); assay: LanthaScreen ULK1 inhibitor assay; type: biochemical; details: 5 nM GST-ULK1, 30 nM tracer, 20 μM ATP, 1 hr room temperature
T1 sequence (O75385 1-1050): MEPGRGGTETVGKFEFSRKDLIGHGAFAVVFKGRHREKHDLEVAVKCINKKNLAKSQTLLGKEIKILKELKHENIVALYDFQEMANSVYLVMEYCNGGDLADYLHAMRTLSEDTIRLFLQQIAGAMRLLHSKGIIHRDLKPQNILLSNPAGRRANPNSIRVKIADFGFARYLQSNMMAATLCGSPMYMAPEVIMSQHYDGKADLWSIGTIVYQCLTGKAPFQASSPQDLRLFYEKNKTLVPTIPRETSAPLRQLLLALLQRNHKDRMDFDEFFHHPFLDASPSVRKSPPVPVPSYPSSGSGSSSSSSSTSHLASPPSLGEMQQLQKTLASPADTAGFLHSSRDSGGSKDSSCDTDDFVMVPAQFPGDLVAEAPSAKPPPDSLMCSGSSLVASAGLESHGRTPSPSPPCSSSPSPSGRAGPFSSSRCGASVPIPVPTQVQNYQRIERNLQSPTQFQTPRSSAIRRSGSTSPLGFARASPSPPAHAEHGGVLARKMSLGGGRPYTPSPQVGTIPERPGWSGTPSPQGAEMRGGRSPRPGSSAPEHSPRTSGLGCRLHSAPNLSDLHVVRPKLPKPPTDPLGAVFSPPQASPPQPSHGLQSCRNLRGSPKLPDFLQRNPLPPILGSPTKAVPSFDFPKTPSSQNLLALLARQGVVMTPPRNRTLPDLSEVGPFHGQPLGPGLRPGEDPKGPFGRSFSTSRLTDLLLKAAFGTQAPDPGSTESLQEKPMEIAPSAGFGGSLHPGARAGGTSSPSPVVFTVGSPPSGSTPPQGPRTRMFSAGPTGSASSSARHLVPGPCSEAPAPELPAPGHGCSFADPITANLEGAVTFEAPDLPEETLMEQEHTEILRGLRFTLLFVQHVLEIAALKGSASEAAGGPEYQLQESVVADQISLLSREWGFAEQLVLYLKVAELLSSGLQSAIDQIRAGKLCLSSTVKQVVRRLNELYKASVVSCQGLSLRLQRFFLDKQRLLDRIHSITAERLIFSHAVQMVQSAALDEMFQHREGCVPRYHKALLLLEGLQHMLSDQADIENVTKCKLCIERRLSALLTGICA

ULK1 kinase = target: T2, ULK1 kinase (Homo sapiens, UniProt O75385); assay: Radiometric HotSpot kinase assay (Reaction Biology); type: biochemical; details: activity-based ULK1 kinase assay
T2 construct: purchased Reaction Biology
T2 sequence (O75385 1-1050): T1 sequence (O75385 1-1050)

ULK1 kinase domain = target: T3, ULK1 kinase domain (Homo sapiens, UniProt O75385); assay: Differential scanning fluorimetry (thermal shift); type: binding; details: 2 μM ULK1 kinase domain, 50 μM compound, vs DMSO reference
T3 construct: The protein expression construct of ULK1 kinase domain (1-283) was cloned; 6His-Sumo (N, cleaved yes); made in house; host or cells: E. coli BL21 star, co-expressed with lambda phosphatase
T3 sequence (O75385 1-283): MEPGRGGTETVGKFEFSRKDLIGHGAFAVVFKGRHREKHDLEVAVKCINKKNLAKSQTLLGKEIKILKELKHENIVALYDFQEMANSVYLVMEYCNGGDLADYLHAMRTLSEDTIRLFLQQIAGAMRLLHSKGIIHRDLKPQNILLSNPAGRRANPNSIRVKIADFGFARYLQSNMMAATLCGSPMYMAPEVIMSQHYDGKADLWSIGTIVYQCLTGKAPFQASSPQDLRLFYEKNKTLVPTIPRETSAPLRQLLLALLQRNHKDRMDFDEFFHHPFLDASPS

| Structure (SMILES) | pIC50 (GST-ULK1) | IC50 (ULK1 kinase) | ΔTm at 50 µM (ULK1 kinase domain) |
| --- | --- | --- | --- |
| O=C(NC(CO)CO)c1cccc(-c2cnc3[nH]c(-c4ccc(F)cc4)cc3c2)n1 [Compound 55, N-(1,3-Dihydroxypropan-2-yl)-6-(2-(4-fluorophenyl)-1H-pyrrolo[2,3-b]pyridin-5-yl)picolinamide] | 7.13 | 44 nM | 8.56 °C |
| CC[C@@H](CO)NC(=O)c1cccc(-c2cnc3[nH]c(-c4ccc(F)cc4)cc3c2)c1 [Compound 54, (S)-3-(2-(4-Fluorophenyl)-1H-pyrrolo[2,3-b]pyridin-5-yl)-N-(1-hydroxybutan-2-yl)benzamide] | 5.23 | 1470 nM | 1.62 °C |
| FC1(F)CCN(c2c(C(F)(F)F)cnc3[nH]c(C4CCOCC4)cc23)CC1 [Compound 92, 4-(4,4-difluoropiperidin-1-yl)-2-(tetrahydro-2H-pyran-4-yl)-5-(trifluoromethyl)-1H-pyrrolo[2,3-b]pyridine] |  |  | 0.88 °C |
| FC1(F)CN(c2c(C(F)(F)F)cnc3[nH]c(C4CCOCC4)cc23)C1 [Compound 85, 4-(3,3-difluoroazetidin-1-yl)-2-(tetrahydro-2H-pyran-4-yl)-5-(trifluoromethyl)-1H-pyrrolo[2,3-b]pyridine] |  |  | 0.54 °C |
| O=C(NCC1(O)CCCC1)c1nc(-c2cnc3[nH]c(-c4ccc(F)cc4)cc3c2)cs1 [Compound 72, 4-(2-(4-fluorophenyl)-1H-pyrrolo-[2,3-b]pyridin-5-yl)-N-((1-hydroxy-cyclopentyl)methyl)thiazole-2-carboxamide] | 7.44 | 50 nM | 7.96 °C |
| O=C(NC[C@@H](O)CO)c1cccc(-c2cnc3[nH]c(-c4ccc(F)cc4)cc3c2)c1 [Compound 48, (R)—N-(2,3-Dihydroxypropyl)-3-(2-(4-fluorophenyl)-1H-pyrrolo[2,3-b]pyridin-5-yl)benzamide] | 6.32 | 261 nM | 4.52 °C |
| FC1(F)CN(c2c(C(F)(F)F)cnc3[nH]c(C4=CCOCC4)cc23)C1 [Compound 86, 4-(3,3-Difluoroazetidin-1-yl)-2-(3,6-dihydro-2H-pyran-4-yl)-5-(trifluoromethyl)-1H-pyrrolo[2,3-b]pyridine] | 6.76 | 56 nM | 6.82 °C |
| CC[C@H](CO)NC(=O)c1nc(-c2cnc3[nH]c(-c4ccc(F)cc4)cc3c2)cs1 [Compound 62, (R)-4-(2-(4-Fluorophenyl)-1H-pyrrolo[2,3-b]pyridin-5-yl)-N-(1-hydroxybutan-2-yl)-thiazole-2-carboxamide] | 6.74 | 78 nM | 4.81 °C |
| O=C(NC(CO)CO)c1nc(-c2cnc3[nH]c(-c4ccc(F)cc4)cc3c2)cs1 [Compound 63, N-(1,3-Dihydroxypropan-2-yl)-4-(2-(4-fluorophenyl)-1H-pyrrolo[2,3-b]pyridin-5-yl)-thiazole-2-carboxamide] | 6.99 | 55 nM | 6.46 °C |
| FC(F)(F)c1cnc2[nH]c(C3=CCCNC3)cc2c1NCCCN1CCCC1 [Compound 119] | 5.80 |  |  |
| CC(C)(C)OC(=O)N1CCCC(c2cc3cc(-c4csc(C(=O)NCC(F)(F)F)c4)cnc3[nH]2)C1 (stereo not shown) [Compound 43, tert-Butyl 3-(5-(5-((2,2,2-trifluoroethyl)carbamoyl)thiophen-3-yl)-1H-pyrrolo[2,3-b]-pyridin-2-yl)piperidine-1-carboxylate] |  |  | 4.2 °C |
| O=C(NC[C@H](O)CO)c1cccc(-c2cnc3[nH]c(-c4ccc(F)cc4)cc3c2)c1 [Compound 51, (S)—N-(2,3-Dihydroxypropyl)-3-(2-(4-fluorophenyl)-1H-pyrrolo[2,3-b]pyridin-5-yl)-benzamide] | 6.41 | 184 nM | 4.76 °C |
| FC(F)(F)c1cnc2[nH]c(C3=CCCNC3)cc2c1NCCN1CCOCC1 [Compound 116] | 6.70 |  |  |
| O=C(NC1CNC1)c1nc(-c2cnc3[nH]c(-c4ccc(F)cc4)cc3c2)cs1 [Compound 80, N-(azetidin-3-yl)-4-(2-(4-fluoro-phenyl)-1H-pyrrolo[2,3-b]pyridin-5-yl)thiazole-2-carboxamide] | 6.02 | 502 nM | 4.99 °C |
| O=C(c1nc(-c2cnc3[nH]c(-c4ccc(F)cc4)cc3c2)cs1)N1CC(F)C1 [Compound 74, (3-fluoroazetidin-1-yl)(4-(2-(4-fluorophenyl)-1H-pyrrolo[2,3-b]-pyridin-5-yl)thiazol-2-yl)methanone] | 6.18 | 644 nM | 1.87 °C |
| O=C(c1nc(-c2cnc3[nH]c(-c4ccc(F)cc4)cc3c2)cs1)N1CC(F)(F)C1 [Compound 75, (3,3-difluoroazetidin-1-yl)(4-(2-(4-fluorophenyl)-1H-pyrrolo[2,3-b]-pyridin-5-yl)thiazol-2-yl)-methanone] |  |  | 3 °C |

| Structure (SMILES) | pIC50 (GST-ULK1) | IC50 (ULK1 kinase) | ΔTm at 50 µM (ULK1 kinase domain) |
| --- | --- | --- | --- |
| FC(F)(F)c1cnc2[nH]c(C3=CCNCC3)cc2c1NCCCN1CCCC1 [Compound 121] | 6.49 |  |  |
| O=C(NCC(F)(F)F)c1cc(-c2cnc3[nH]c(C4=CCN(C5CCC(C(=O)O)CC5)CC4)cc3c2)cs1 (stereo not shown) [compound 142] | 7.06 |  |  |
| CS(=O)(=O)NC1CCN(C(=O)c2cc(-c3cnc4[nH]c(-c5ccc(F)cc5)cc4c3)cs2)C1 (stereo not shown) [Compound 9, N-(1-(4-(2-(4-Fluorophenyl)-1H-pyrrolo[2,3-b]pyridin-5-yl)thiophene-2-carbonyl)pyrrolidin-3-yl)methanesulfonamide] |  |  | 1.29 °C |
| O=C(c1cc(-c2cnc3[nH]c(-c4ccc(F)cc4)cc3c2)cs1)N1CCC(NC(=O)C(F)(F)F)C1 (stereo not shown) [Compound 24, 2,2,2-Frifluoro-N-(1-(4-(2-(4-fluorophenyl)-1H-pyrrolo[2,3-b]pyridin-5-yl)thiophene-2-carbonyl)pyrrolidin-3-yl)acetamide] |  |  | 0.4 °C |
| FC(F)(F)c1cnc2[nH]c(C3=CCNCC3)cc2c1NCCN1CCNCC1 [Compound 114] | 7.85 |  |  |
| FC(F)(F)c1cnc2[nH]c(C3=CCNC3)cc2c1NCCCN1CCCC1 [Compound 120] | 5.92 |  |  |
| O=C(NCC1(O)CC1)c1cc(-c2cnc3[nH]c(C4=CCNC4)cc3c2)cs1 [Compound 109] | 7.10 |  |  |
| FC1(F)CN(c2c(C(F)(F)F)cnc3[nH]c(C4=CCCNC4)cc23)C1 [Compound 141] | 6.05 |  |  |
| FC(F)(F)c1cnc2[nH]c(C3=CCNCC3)cc2c1NCCN1CCOCC1 [Compound 118] | 6.90 |  |  |
| FC(F)(F)c1cnc2[nH]c(C3=CCCNC3)cc2c1NCCN1CCNCC1 [Compound 112] | 8.10 |  |  |
| FC(F)(F)c1cnc2[nH]c(C3=CCNC3)cc2c1NCCN1CCOCC1 [Compound 117] | 7.07 |  |  |
| FC1(F)CN(c2c(C(F)(F)F)cnc3[nH]c(C4=CCNCC4)cc23)C1 [Compound 115] | 7.09 |  |  |
| CN1CCC(c2cc3c(N4CC(F)(F)C4)c(C(F)(F)F)cnc3[nH]2)CC1 [Compound 96, 4-(3,3-difluoroazetidin-1-yl)-2-(1-methylpiperidin-4-yl)-5-(trifluoromethyl)-1H-pyrrolo[2,3-b]pyridine] |  |  | 3.09 °C |
| CC(C)(C)OC(=O)N1CCC(c2cc3cc(-c4csc(C(=O)NCC(F)(F)F)c4)cnc3[nH]2)CC1 [Compound 40, tert-Butyl 4-(5-(5-((2,2,2-trifluoroethyl)carbamoyl)thiophen-3-yl)-1H-pyrrolo[2,3-b]-pyridin-2-yl)piperidine-1-carboxylate] |  |  | 1.63 °C |
| FC(F)(F)c1cnc2[nH]c(C3=CCNC3)cc2c1NCCN1CCNCC1 [Compound 113] | 7.20 |  |  |
| CN1CCC(c2cc3c(NCCCN4CCCC4)c(C(F)(F)F)cnc3[nH]2)CC1 [Compound 94, 2-(1-methylpiperidin-4-yl)-N-(3-(pyrrolidin-1-yl)propyl)-5-(trifluoromethyl)-1H-pyrrolo[2,3-b]pyridin-4-amine] |  |  | 0.76 °C |
